Data published in patent US9421222B2, “Treatment of compartment syndrome” (LONDON HEALTH SCIENCES CENTRE RESEARCH INC., priority 2013, dated 2016).
“Also recorded” adds a separate entry of the source.

How the values were obtained:
Format in all cases: in vivo
[1] = test system: CS-challenged skeletal muscle (EDL); assay: Rat compartment syndrome model, intravital video microscopy (IVVM) of EDL muscle
Description: (§1) The experimental protocol was approved by the Council on Animal Care of the University of Western Ontario, and has been previously described in detail. Briefly, male Wistar rats (body weight 180-250 g) were anesthetized by inhalational isoflurane (5% induction, 2% maintenance) in 1:1 oxygen/nitrogen mixture. Left carotid artery was cannulated to allow for the monitoring of systemic blood pressure, fluid administration and blood sampling.
(§2) Compartment pressure monitoring probe (Synthes, Westchester Pa.) was inserted into the posterior compartment via gauge 16 angiocatheter (BD), while gauge 24 angiocatheter (BD) attached to an IV line was placed into the anterior compartment of the rat hind limb. CS was induced by an infusion of isotonic saline, leading to an elevation of intra-compartmental pressure (ICP) to 30 mmHg. Elevated ICP was maintained for 2 hours. Fasciotomy was performed to decompress the hind limb compartments; the muscles were allowed to reperfuse for 45 minutes, followed by intravital video microscopy.
(§3) Rats were randomly assigned to one of four experimental groups: sham (n=4), CS (n=4), CS+CORM-3 (n=8) and CS+iCORM-3 (n=8).
The extensor digitorum longus (EDL) muscle was dissected to the level of its distal tendon, which was tied with a suture and cut from its bony insertion. The animal was transferred onto the stage of an inverted microscope (Nikon™); the EDL was reflected into a saline bath containing 5 μg/ml each of the fluorescent vital dyes bisbenzimide (BB; exc. 343 nm, em. 483 nm) and ethidium bromide (EB; exc. 482 nm, em. 616 nm). BB stains the nuclei of all cells while EB stains the nuclei of only those cells with damaged cell membrane. Thus, EB/BB ratio provided an index of tissue injury.
Microvascular perfusion and leukocytes within the post-capillary venules were recorded by translumination with 20× and 40× objectives, respectively, in five adjacent fields of view. Fluorescence microscopy was used to visualize the BB and EB from the same fields of view that had been selected for the measurement of capillary perfusion. At the conclusion of the experiment, rats were euthanized by an overdose of anesthetic agent.
Capillary perfusion was assessed by counting the number of continuously-perfused (CPC), intermittently-perfused (IPC) and non-perfused (NPC) capillaries that crossed three parallel lines drawn perpendicular to the capillary axis on the video monitor, and was expressed as % of total capillaries. Tissue injury was assessed by counting the number of EB- and BB-labelled nuclei, and expressed as EB/BB ratio. Leukocyte activation was assessed by counting the numbers of rolling and adherent leukocytes in post-capillary venules and expressed per 1000 μm^2. Venular area was measured using ImageJ (NIH, Bethesda, Md.). A leukocyte was considered adherent if it remained stationary for at least 30 seconds, and a cell was considered rolling if it remained in contact with the wall of the vessel during its movement.

[2] = Systemic leukocyte counts, hemoglobin and carboxyhemoglobin in rat CS model
Description: as §1, §2, §3
Two hours of elevated ICP were followed by fasciotomy, injection of CORM-3 (or iCORM-3) and 45 min reperfusion. CS-associated rise in systemic leukocytes was reversed by CORM-3 application (*p<0.01 from sham; †p<0.05 from CS+iCORM-3). CORM-3 and iCORM-3 caused no changes in systemic levels of COHb. LKC, leukocyte counts; COHb, carboxyhemoglobin.

[3] = test system: TNF-α; assay: Serum TNF-α (ELISA) in rat CS model; conditions: 30 and 45 minutes post-fasciotomy, 10 mg/kg IP
Procedure: TNF-α levels were measured from arterial blood samples drawn at 9 time points: (1) baseline, (2) 15 minutes into CS, (3) 45 minutes into CS, (4) 90 minutes into CS, (5) 2 hours into CS-just prior to fasciotomy and CORM-3 (or iCORM-3) injection, (6) 10 minutes post-fasciotomy, (7) 20 minutes post fasciotomy, (8) 30 minutes post fasciotomy, (9) 45 minutes post fasciotomy, just before IVVM. TNF-α was assessed using enzyme-linked immunosorbent assay (ELISA, Pierce Biotechnology, c/o Thermo Scientific, Rockford, Ill.) according to manufacturer's instructions. The TNF-α ELISA was sensitive to less than […].

[4] = test system: compartment syndrome; assay: Porcine model of compartment syndrome: PMN activation and capillary perfusion (IVVM); conditions: pig, 6 h elevated ICP, 10 mg/kg
Procedure: (§4) Following the basic surgical setup (anesthesia, intubation, auricular vein and femoral artery catheterization), the animals undergo 6 hours of elevated intra-compartmental pressure (i.e. CS), followed by fasciotomy and reperfusion. The time interval was chosen in order to closely mimic the condition in human patients. CORM-3 (or iCORM-3), 10 mg/kg of animal is applied prior to fasciotomy. Blood is sampled at various time intervals (baseline, 1 hr CS, 2 hr CS, 3 hr CS, 4 hr CS, 5 hr CS, 6 hr CS/fasciotomy, and every 10-15 min post-fasciotomy, for a total of 20 samples per animal), in order to monitor leukocyte activation and serum TNF-α levels. IVVM is carried out at 3 hours post-fasciotomy.

[5] = test system: TNF-α; assay: Serum TNF-α time course in porcine model of CS; conditions: pig, 6 h elevated ICP, 10 mg/kg, 3 h reperfusion
Procedure: as §4

[6] = test system: compartment syndrome; assay: CatWalk gait assessment in rats after CS without fasciotomy; conditions: rat, 180 min CS, no fasciotomy
Procedure: Animal preparation and synthesis of CORM-3 were similar to Example 3.
Complete inducement of CS occurred at about 180 minutes post induction. The animals were injected at 180 minutes and every 24 hours thereafter.
Quantitative assessment of footfalls and gait in the rats was assessed using CatWalk™, which a system for quantitative assessment of footfalls and gait in rats and mice.

[7] = rat CS model, 10 mg/kg IP at fasciotomy
[8] = rat CS model, CORM-3 versus control
[9] = rat, 2 h elevated ICP, fasciotomy, 10 mg/kg IP, 45 min reperfusion, mean±SEM

With NCC(=O)O.[C-]#[O+].[C-]#[O+].[C-]#[O+].[Cl][Ru] [CORM-3, tricarbonylchloro-glycinate-ruthenium(II)] the “Effect on leukocyte adhesion within post-capillary venules” value ([1]; rat CS model, 10 mg/kg IP) was “prevent leukocyte adhesion”, the “Effect on leukocyte rolling” value ([1]; rat CS model, 10 mg/kg IP) was “no effect” and the “Effect on CS-associated microvascular perfusion changes” value [1, 7] was “reversed”. For the same molecule, the “Effect on CS-associated tissue injury” value [1, 7] was “reversed”, the “Decrease in leukocyte adherence (leukocyte activation)” value [1, 8] was 8 fold and the “Decrease in tissue injury” value [1, 8] was 4 fold. The “Leukocyte adherence in post-capillary venules” value [1, 9] was 0.6±0.3 leukocytes/30 s/1000 μm^2, the “Leukocyte rolling in post-capillary venules” value [1, 9] was 3.0±0.8 leukocytes/30 s/1000 μm^2 and the “Muscle injury, EB/BB ratio” value [1, 9] was 0.07±0.01. For the same molecule, the “Continuously-perfused capillaries (CPC)” value ([1]; rat, % of total capillaries, 2 h elevated ICP, fasciotomy, 10 mg/kg IP, 45 min reperfusion, mean±SEM) was 57±5%, the “Effect on COHb levels” value ([2]; rat CS model, 10 mg/kg IP) was “no effect” and the “Effect on CS-associated rise in systemic leukocyte counts” value [2, 7] was “decrease the severity of this response”. The “COHb (carboxyhemoglobin)” value [2, 9] was 1.6 ± 0.1%, the Hemoglobin [2, 9] was 129.5 ± 2.7 g/L and the “LKC (systemic leukocyte counts)” value [2, 9] was 2.3 ± 0.2^† Units × 10^9/L. For the same molecule, the “Serum TNF-α in post-fasciotomy/reperfusion period” value [3] was “effectively prevented; also recorded: reversed”, the “Continuously-perfused capillaries (CPC)” value ([4]; IVVM 3 h post-fasciotomy) was “increase” and the “Intermittently-perfused capillaries (IPC)” value ([4]; IVVM 3 h post-fasciotomy) was “decrease”. For the same molecule, the “Non-perfused capillaries (NPC)” value ([4]; IVVM 3 h post-fasciotomy) was “decrease”, the “Number of activated PMNs post-fasciotomy” value ([4]; fasciotomy, versus iCORM-3) was “significant decrease” and the “Serum TNF-α release associated with post-fasciotomy/reperfusion” value [5] was “prevented any TNF-α release”. For the same molecule, the “Static and dynamic gait functional parameters (CatWalk)” value ([6]; 10 mg/kg IP at 180 min and every 24 h, relative to iCORM-3) was “significantly improved” and the “Weight bearing parameters (CatWalk)” value ([6]; multi dose 10 mg/kg IP) was “improvement”.
